The record followed here is patent publication US20240342195A1, “AGENT FOR COMBINATION USE COMPRISING T CELL AND/OR B CELL ACTIVITY REGULATOR” (TOKAI UNIVERSITY EDUCATIONAL SYSTEM, priority 2021, published 2024).

One experiment has as its system BeWo. Briefly: proliferating ability of cell line cultured with P4 or COR. It counts as cell-based, human. Conditions: 200 μM or less, cultured 10 days. How it is done:
(§1) Each of human choriocarcinoma cell line JEG-3, BeWo, and embryonic kidney cell line HEK293 was cultured for 10 days at 37° C. in 5% CO2 in a 10% Fetal Calf Serum (FCS)-containing DMEM (Gibuco) to which water-soluble progesterone (P4; water soluble) (Sigma) or cortisol (COR) (Sigma) was added in various concentrations. Each of mouse myeloma cell line P3-X63-Ag8-U1 (P3X) and mouse lymphoma cell line A20 was cultured for 3 days at 37° C. in 5% CO2 in 10% FCS-containing RPMI 1640 to which P4 or COR was added in various concentrations. Proliferation of the cells was evaluated by measuring the number of the cells.

The test system of the next experiment is HEK293. Described as above. It is filed as cell-based, human. Conditions: 200 μM or less, cultured 10 days. How it is done:
as §1

The subject of another experiment is JEG-3. Described as above. It counts as cell-based, human. The note with it: 200 μM or less, cultured 10 days. How it is done:
as §1

Another experiment deals with A20. The description is as above. It is filed as cell-based, mouse. Conditions: 2 μM or less, cultured 3 days. How it is done: as §1
The test system of a further experiment is P3-X63-Ag8-U1 (P3X). The experiment is described as above. It counts as cell-based, mouse. The note with it: 2 μM or less, cultured 3 days. How it is done: as §1
For experiment [1], the system named is Human peripheral blood mononuclear cells (PBMCs). Briefly: number of cells of TSST-1-stimulated PBMCs cultured with P4 or COR. It counts as cell-based. Conditions: PBMCs + TSST-1; 3 days. How it is done:
(§2) The PBMCs (final concentration: 1×10^6/mL) were cultured for 3 days at 37° C. in 5% CO2 in 10% FCS-containing RPMI 1640 to which P4 or COR was added in various concentrations with stimulation by 1 μg/mL of toxic shock syndrome toxin-1 (TSST-1). These cells were collected, washed with PBS, and dispensed into a Fisher tube in an amount of 1×10^6 cells/tube. For analysis of a human cell surface marker, a fluorescent-labeled anti-human monoclonal antibody (mAbs) was used. The cells were stained with the mAbs, a reaction was performed for 15 minutes at 4° C., and the resultant was washed with PBS containing 1% (w/v) BSA. Then, the resultant was analyzed by FACS Fortessa, or FACS Verse (BD Bioscience, Franklin Lakes, NJ). In the analysis, a leukocyte gated or lymphocyte gated cells were further gated by expression of human CD45, and then the analysis was performed. A culture supernatant was collected, and 25 μL thereof was dispensed to quantitatively determine cytokine with Legend Plex™ kit from BioLegend.

Experiment [2] deals with CD4 and CD8 T cells in PBMCs. Briefly: FCM analysis of activation/exhaustion markers (CD25, PD-1) on T cells of TSST-1-stimulated PBMCs. It is filed as cell-based, human. The note with it: 20 to 200 μM. How it is done:
as §2

In experiment [3] the test system is B cell in PBMCs. As to the kind of experiment: FCM analysis of PD-1 on B cells of TSST-1-stimulated PBMCs. It counts as cell-based, human. The note with it: TSST-1 and P4/COR stimulation; data not shown. How it is done:
as §2

Experiment [4] concerns CD4 and CD8 T cells in PBMCs. As to the kind of experiment: restimulation experiment (transient vs continuous P4/COR), PD-1/PD-L1 on T cells. It is filed as cell-based, human. Conditions: TSST-1 3 days. How it is done:
(§3) In a restimulation experiment, PBMCs were cultured for 6 hours at 37° C. in 5% CO2 in 10% FCS-containing RPMI 1640 to which 200 μM P4 or COR was added. These cells were washed, adjusted to a final concentration of 1×10^6/mL, and cultured again in the presence or absence of 200 μM P4 or COR with stimulation by 1 μM TSST-1. After 72 hours, the resultant cells were collected to be analyzed by FCM.

The test system of experiment [5] is B cell in PBMCs. As to the kind of experiment: restimulation experiment (transient vs continuous P4/COR), PD-L1 on B cells. It counts as cell-based, human. The note with it: addition of 200 μM; TSST-1 3 days. How it is done:
as §3

Experiment [6] relates to Hu-PBMC-NOG (GVHD onset model). Briefly: GVHD onset model: human PBMCs transplanted to NOG mouse, P4 or COR administered subcutaneously. It is filed as in vivo. The note with it: 2 mg/head subcutaneously twice a week, 4 weeks. How it is done: In the analysis using the GVHD model, PBMCs prepared in the same manner as described above were washed with PBS, and 2.5×10^6 PBMCs were intravenously transplanted to each 8- to 9-week-old NOG mouse. […] At the same time as the administration, the weight was measured. After 4 weeks, the mouse was anesthetized to collect heart blood, and euthanized. From various lymphoid organs excised, human cells were prepared, hemolyzed, and then subjected to FCM. Besides, the lung and the liver were excised, and immunohistochemically stained as follows. A tissue of the mouse was immobilized with 20% formalin (Wako Pure Chemical Industries, Ltd.), and embedded in paraffin. The obtained paraffin block was sliced, and the resultant was subjected to deparaffinization, mounted on a slide glass, and stained with hematoxylin and eosin (HE). In immunohistochemical staining with an anti-human CD45 antibody, the slide was subjected to a heat treatment at 97° C. for 20 minutes, and subjected to an endogenous peroxidase treatment through a reaction with 0.3% H2O2/MetOH at room temperature for 10 minutes. Thereafter, the resultant was blocked with 1% goat serum, and anti-human CD45 (Dako) was added thereto, followed by a reaction overnight at 4° C. The resultant slide was washed 3 times with 0.01 M PBS for 5 minutes, and colored with a DAB solution. The resultant was washed with running water for 3 minutes, and stained with hematoxylin, followed by dehydration and penetration/encapsulation.

The test system of a further experiment is PBMC-NOG-hIL-4-Tg mouse. As to the kind of experiment: transplantation of P4/COR-cultured PBMCs to NOG-hIL-4-Tg mouse immunized with CH401MAP. It counts as in vivo. The note with it: PBMCs cultured with 200 μM for 6 hours before transplantation.
Experiment [7] concerns B cell (CD19 gated) in human PBMCs. Briefly: atezolizumab addition experiment, PD-L1/PD-1 expression on B cell by FCM. It counts as cell-based. Conditions: 3 days. How it is done:
(§4) As for an experiment of atezolizumab addition, 0 to 200 μM P4 or COR, 1 μM TSST-1, and 100 μg/mL atezolizumab were added to PBMCs, and the resultant was cultured for 72 hours at 37° C. in 5% CO2, followed by analysis by FCM.

Experiment [8] deals with T cell (CD3 gated) in human PBMCs. As to the kind of experiment: atezolizumab addition experiment, PD-L1/PD-1 expression on T cell by FCM. It counts as cell-based. The note with it: 3 days. How it is done: as §4
In the next experiment the test system is humanized mouse. As to the kind of experiment: PD-L1/PD-1 expression in humanized mouse in vivo after atezolizumab administration. The note with it: data not shown.
Experiment [9] deals with human breast cancer cell line MDA-MB-231. Briefly: cancer-bearing CMV-NOG-hIL-4-Tg mouse with MDA-MB-231 and human PBMCs transplanted. It is filed as in vivo. How it is done:
5×10^6 MDA-MB231 was subcutaneously administered to a ventral portion of a 6- to 7-week-old NOG-hIL-4-Tg mouse (a hIL-4 concentration in blood of 100 pg/mL or more). Diameters of the tumor along the ventral and in a direction at a right angle to the ventral were measured with a caliper every 2 days from one week after the administration, and the product thereof was defined as the size of the tumor. Two weeks after the tumor transplantation, 5×10^6 PBMCs were intravenously transplanted to the cancer-bearing mice and non-cancer-bearing mice as a control group. The measurement of the tumor diameters was similarly continued after the PBMC transplantation. The non-cancer bearing mice were divided into two groups, and PBS or atezolizumab ([…], 3 times (every 10 days)) was administered to each group. The cancer-bearing mice were divided into three groups, and PBS, atezolizumab ([…], 3 times (every 10 days)), or liposome (amount equivalent to 225 μg of atezolizumab and 40 μg of P4/dose, 6 times (every 5 days)) was administered to each group.
After 4 weeks, the mice were anesthetized to collect heparinized blood, and were euthanized. From various lymph tissues collected, cells were collected, and erythrocytes were removed therefrom with a hemolysis buffer to prepare a cell suspension. The number of cells therein was counted, and a human leukocyte fraction was subjected to flowcytometry (FCM) analysis. A tumor tissue was used for immunohistochemical staining.
For human immunocytochemistry, the same antibodies as those used in Example 1 were used. Cells were reacted with an appropriate amount of each of various, fluorescent-labeled antibodies for 15 minutes at 4° C., and washed with PBS containing 1% BSA. The resultant cells were analyzed with FACS Fortessa or Verse (manufactured by BD Bioscience). Living cells were gated, and human CD45-positive cells were further gated to obtain a human leukocyte fraction. These cells were further divided with a cell surface marker to obtain lymphocyte subsets. For data analysis, FlowJo (BD) was used.
A tissue of the mouse was immobilized with 20% formalin (manufactured by Wako Pure Chemical Industries, Ltd.), and embedded in paraffin. The resultant paraffin block was sliced, and the resultant was subjected to deparaffinization, mounted on a slide glass, and stained with hematoxylin and eosin (HE). In immunohistochemical staining with an anti-human CD8 antibody, the slide was subjected to a heat treatment at 120° C. for 20 minutes, and subjected to an endogenous peroxidase treatment through a reaction with 0.3% H2O2/MetOH at room temperature for 10 minutes. Thereafter, the resultant was blocked with 1% goat serum, and anti-human CD8 (manufactured by Dako) was added thereto, followed by a reaction at 25° C. for 60 minutes. The resultant slide was washed 3 times with 0.01 M PBS for 5 minutes, followed by a reaction at 25° C. for 60 minutes with simple stain MAX-PO (manufactured by Nichirei Biosciences Inc.). The resultant slide was washed 3 times with 0.01 M PBS for 5 minutes, and colored with a DAB solution. The resultant was washed with running water for 3 minutes, and stained with hematoxylin, followed by dehydration and penetration/encapsulation.

[10] abbreviates: atezolizumab 450 pg/head/dose 3 times, liposome equivalent to 225 μg atezolizumab and 40 μg P4/dose 6 times, 4 weeks.

`C[C@]12CCC(=O)C=C1CC[C@@H]1[C@@H]2[C@@H](O)C[C@@]2(C)[C@H]1CC[C@]2(O)C(=O)CO` [COR, cortisol]: the cell proliferating ability entry in the experiment on BeWo, in the experiment on HEK293 and in the experiment on JEG-3 was “minimally changed” each time. Also, the proliferation entry with A20 and in the experiment with P3-X63-Ag8-U1 (P3X) was “almost completely suppressed” each time. In addition, in experiment [1], the “number of cells vs control group” value is “substantially no difference”. Moreover, the “PD-1 expression on T cells” value in experiment [2] (day 3) was “not suppressed depending on the COR concentration”. The “activation marker-negative (non-activated) T cells” value in [2] (day 3) is reported as “not largely increased”. The “number of activated cells” value in [2] (day 3, data not shown) was “reduced”. In experiment [2] (CD4 and CD8 T cells, day 3), the “ratio of later-phase activated (CD25-positive PD-1-positive) T cells” value was “did not depend on the COR concentration”. Besides, the “PD-1 expression on B cell” value with B cell in PBMCs [3] was “not increased”. Moreover, in [4] (CD4 and CD8 T cells, continuously added, 200 μM), the “ratio of later-phase activated (PD-1/PD-L1-positive) cells” value is “not suppressed as much as that obtained by P4 addition”. Further, the “CD8 T cell activation vs control group” value in [4] (transiently added (200 μM 6 hours, washed)) was “significantly suppressed”. Moreover, the “PD-L1 expression in B cell” value in the experiment on B cell in PBMCs [5] is recorded as “tended to reduce PD-L1 expression”. Further, the GVHD symptoms entry in experiment [6] was “reduced GVHD symptoms”. In addition, in experiment [6], the lymphocyte engraftment entry is listed as “lymphocyte engraftment failure was also caused”. The lymphocytes result in experiment [6] was “reduced lymphocytes”. Besides, in the experiment on PBMC-NOG-hIL-4-Tg mouse (analysis after 4 weeks), the “engraftment ability of transplanted PBMCs” value is listed as “low engraftment ability”. In the experiment on PBMC-NOG-hIL-4-Tg mouse (plasma after 4 weeks), the “specific antibody production (CH401MAP)” value was “suppressed”. In addition, the “PD-L1 expression in a B cell” value in [7] (0 to 200 μM, TSST-1) is listed as “showed PD-L1 expression”.
Regarding atezolizumab, in experiment [8], the “PD-1 expression in a T cell” value is on record as “increased” and the “PD-L1 expression in a T cell” value is on record as “reduced”. In addition, in experiment [7], the “PD-1 expression in a B cell” value is “increased”. In the experiment on humanized mouse, the PD-1 expression result is recorded as “tended to be increased” and the PD-L1 expression result is listed as “tended to be reduced”. Also, in [9] (setting [10]), the “engraftment of a B cell (CD19-positive) in spleen cells” value is “reduced”, the “ratio of a T cell (CD3-positive) in spleen cells” value is “increased” and the “ratio of the CD8-positive killer T cell in spleen cells” value is “increased”. Also, the “increase of the tumor (tumor diameter)” value in [9] (compared with PBS administration group) was “suppressed”. In addition, in [9] (histochemical staining (anti-human CD8), liposome compared with atezolizumab alone), the “human (killer) T cell infiltration into the tumor mass” value is on record as “obviously observed”.
